From ChEMBL document CHEMBL1201862, “PubChem BioAssay data set” (2004)
Activity calls are given as the source filed them.

Key:
[1] = HEK-293T viability loss after treatment – luminescence, T-cell screen hits, cytotoxicity control for TCR NF-kB inhibitor project, dose response (AID 489026); assay type: functional, cell-based;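 also: cells exposed to compound about 14 hours before the viability readout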
Protein Wnt-3a = Protein Wnt-3a (Mus musculus, UniProt P27467); assay: antagonism of Wnt3a pathway luciferase reporter – Wnt-LIGHT cells, luminescence, selectivity assay for Gli-SUFU antagonist project, dose response (AID 651570); assay type: functional; conditions: read-out: IC50_Mean;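 also: Wnt-LIGHT reporter cells stimulated with conditioned medium from Wnt3a-producing cells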
Sequence of Protein Wnt-3a (P27467 whole entry): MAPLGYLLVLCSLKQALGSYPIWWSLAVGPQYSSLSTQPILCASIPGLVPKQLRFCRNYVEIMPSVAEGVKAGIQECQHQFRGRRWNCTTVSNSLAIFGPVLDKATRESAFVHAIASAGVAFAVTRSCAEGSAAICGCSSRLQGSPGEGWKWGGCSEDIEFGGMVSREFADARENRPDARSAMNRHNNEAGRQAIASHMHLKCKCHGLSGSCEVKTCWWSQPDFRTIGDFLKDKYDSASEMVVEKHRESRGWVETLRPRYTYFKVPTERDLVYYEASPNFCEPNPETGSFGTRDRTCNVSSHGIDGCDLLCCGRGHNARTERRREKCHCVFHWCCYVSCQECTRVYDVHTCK

[2] = target: Glyceraldehyde-3-phosphate dehydrogenase (Homo sapiens, UniProt P04406)
Sequence of Glyceraldehyde-3-phosphate dehydrogenase (P04406 whole entry): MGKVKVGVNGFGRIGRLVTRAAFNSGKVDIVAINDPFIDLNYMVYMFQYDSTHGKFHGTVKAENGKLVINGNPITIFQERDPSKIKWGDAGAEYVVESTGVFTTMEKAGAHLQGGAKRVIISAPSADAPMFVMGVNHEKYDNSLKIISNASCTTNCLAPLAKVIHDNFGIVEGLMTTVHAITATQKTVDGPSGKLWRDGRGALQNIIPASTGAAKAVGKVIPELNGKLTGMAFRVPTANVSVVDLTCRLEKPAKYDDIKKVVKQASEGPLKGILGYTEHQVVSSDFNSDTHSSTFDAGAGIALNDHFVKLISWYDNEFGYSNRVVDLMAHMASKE

[3] = target: T1, Alkaline phosphatase, tissue-nonspecific isozyme (Homo sapiens, UniProt P05186); assay: potency against alkaline phosphatase TNAP – biochemical, luminescent, dose response, SAR follow-up (AID 1056)
T1 sequence (P05186 whole entry): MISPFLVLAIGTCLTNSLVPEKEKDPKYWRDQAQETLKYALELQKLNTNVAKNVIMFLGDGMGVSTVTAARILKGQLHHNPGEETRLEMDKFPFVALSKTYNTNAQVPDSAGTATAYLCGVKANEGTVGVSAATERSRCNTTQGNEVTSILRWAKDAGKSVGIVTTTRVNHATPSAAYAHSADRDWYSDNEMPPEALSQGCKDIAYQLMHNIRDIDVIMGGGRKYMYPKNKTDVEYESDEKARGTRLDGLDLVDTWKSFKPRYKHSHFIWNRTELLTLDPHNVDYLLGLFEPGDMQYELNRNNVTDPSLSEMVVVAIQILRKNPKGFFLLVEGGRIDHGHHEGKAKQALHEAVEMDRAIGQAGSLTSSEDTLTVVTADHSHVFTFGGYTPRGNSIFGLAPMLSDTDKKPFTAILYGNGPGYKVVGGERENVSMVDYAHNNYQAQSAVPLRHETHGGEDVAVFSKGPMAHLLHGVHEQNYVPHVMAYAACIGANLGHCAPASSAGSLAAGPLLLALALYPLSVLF

Escherichia coli = assay: microbe, parasite or virus in culture
Cytochrome P450 2C9 [4] = target: T2, Cytochrome P450 2C9 (Homo sapiens, UniProt P11712)
T2 sequence (P11712 whole entry): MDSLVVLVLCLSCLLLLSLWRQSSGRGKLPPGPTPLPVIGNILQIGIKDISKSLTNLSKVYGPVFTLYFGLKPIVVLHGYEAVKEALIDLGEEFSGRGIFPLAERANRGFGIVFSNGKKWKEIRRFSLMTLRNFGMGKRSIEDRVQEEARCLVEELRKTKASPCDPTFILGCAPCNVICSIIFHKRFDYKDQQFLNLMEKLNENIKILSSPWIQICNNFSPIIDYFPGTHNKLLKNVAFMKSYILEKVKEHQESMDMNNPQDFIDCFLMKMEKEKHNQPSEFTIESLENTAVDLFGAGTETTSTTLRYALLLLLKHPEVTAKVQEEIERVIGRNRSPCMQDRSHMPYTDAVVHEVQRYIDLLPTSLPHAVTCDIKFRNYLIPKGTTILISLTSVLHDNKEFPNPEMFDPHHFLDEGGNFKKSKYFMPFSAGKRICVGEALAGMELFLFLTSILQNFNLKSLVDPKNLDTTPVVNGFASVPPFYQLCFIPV

Cytochrome P450 2D6 = Cytochrome P450 2D6 (Homo sapiens, UniProt P10635);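 also: CYP2D6 member of a cytochrome P450 panel assay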
Sequence of Cytochrome P450 2D6 (P10635 whole entry): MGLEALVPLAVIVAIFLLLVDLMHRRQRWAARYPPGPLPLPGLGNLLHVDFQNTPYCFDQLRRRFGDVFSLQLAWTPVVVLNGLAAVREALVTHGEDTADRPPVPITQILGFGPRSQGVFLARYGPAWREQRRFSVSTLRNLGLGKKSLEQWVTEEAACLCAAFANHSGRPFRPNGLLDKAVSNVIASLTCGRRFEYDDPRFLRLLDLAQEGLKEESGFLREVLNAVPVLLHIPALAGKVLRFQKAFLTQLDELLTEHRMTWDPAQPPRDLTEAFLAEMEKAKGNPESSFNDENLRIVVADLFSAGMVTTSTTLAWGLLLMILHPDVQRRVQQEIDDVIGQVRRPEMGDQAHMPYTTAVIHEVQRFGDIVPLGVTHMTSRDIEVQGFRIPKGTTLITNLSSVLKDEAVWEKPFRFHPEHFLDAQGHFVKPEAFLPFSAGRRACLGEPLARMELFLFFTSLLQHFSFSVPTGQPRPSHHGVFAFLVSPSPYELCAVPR

fMet-Leu-Phe receptor = target: T3, fMet-Leu-Phe receptor (Homo sapiens, UniProt P21462); assay: formyl peptide receptor binders – dose response (AID 519); assay type: functional
T3 sequence (P21462 whole entry): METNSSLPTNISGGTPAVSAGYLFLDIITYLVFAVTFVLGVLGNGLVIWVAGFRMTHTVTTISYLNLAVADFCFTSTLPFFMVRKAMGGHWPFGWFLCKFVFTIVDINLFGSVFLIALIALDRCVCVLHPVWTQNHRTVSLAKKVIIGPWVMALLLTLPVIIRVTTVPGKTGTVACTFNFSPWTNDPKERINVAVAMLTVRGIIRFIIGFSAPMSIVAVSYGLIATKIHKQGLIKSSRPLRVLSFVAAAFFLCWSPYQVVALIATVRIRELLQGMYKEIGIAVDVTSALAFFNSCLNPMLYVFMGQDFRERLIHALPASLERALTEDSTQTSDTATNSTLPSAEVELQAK

[5] = NIH-3T3 fibroblast cytotoxicity, dose response, cytotoxicity control, cell-based, fluorescence, Alamar Blue, secondary assay (AID 2327); assay type: functional;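 also: NIH-3T3 mouse fibroblasts cultured with fluconazole at 8 µg/mL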
[6] = target: T4, RNA-binding protein pos-1 (Caenorhabditis elegans, UniProt G5EF15); assay: disruptors of C. elegans POS-1 RNA interaction – biochemical, fluorescence polarization, dose response (AID 1964);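 also: purified POS-1 fused to maltose binding protein made in E. coli; potency of compounds blocking POS-1 binding to fluorescent RNA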
T4 sequence (G5EF15 whole entry): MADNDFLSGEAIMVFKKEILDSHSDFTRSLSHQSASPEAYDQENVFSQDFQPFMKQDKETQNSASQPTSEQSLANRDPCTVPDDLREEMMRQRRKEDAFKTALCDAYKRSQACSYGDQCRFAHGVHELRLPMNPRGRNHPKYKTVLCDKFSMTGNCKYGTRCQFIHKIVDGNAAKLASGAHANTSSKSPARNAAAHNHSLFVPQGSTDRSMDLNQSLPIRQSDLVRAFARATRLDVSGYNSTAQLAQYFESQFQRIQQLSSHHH

HEK293 [7] = assay: cells; conditions: Homo sapiens
[8] = target: T5, Zinc finger protein mex-5 (Caenorhabditis elegans, UniProt Q9XUB2); assay: potency of MEX-5 RNA-binding blockers – biochemical, C. elegans, fluorescence polarization, dose response (AID 1960)
T5 sequence (Q9XUB2 whole entry): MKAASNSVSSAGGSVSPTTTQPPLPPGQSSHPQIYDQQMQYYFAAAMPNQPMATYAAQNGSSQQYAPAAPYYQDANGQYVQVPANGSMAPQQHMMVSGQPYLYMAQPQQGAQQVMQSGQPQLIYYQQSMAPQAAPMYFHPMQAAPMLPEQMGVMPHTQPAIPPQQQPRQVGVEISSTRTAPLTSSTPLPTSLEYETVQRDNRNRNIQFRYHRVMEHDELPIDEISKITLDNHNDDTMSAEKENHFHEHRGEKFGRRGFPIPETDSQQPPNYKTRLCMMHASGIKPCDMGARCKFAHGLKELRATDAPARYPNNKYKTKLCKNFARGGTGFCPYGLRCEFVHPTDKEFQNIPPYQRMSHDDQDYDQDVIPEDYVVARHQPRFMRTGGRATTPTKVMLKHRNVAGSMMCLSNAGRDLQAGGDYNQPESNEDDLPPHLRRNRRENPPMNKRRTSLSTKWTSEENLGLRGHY

HEK293 [9] = assay: cells; conditions: Homo sapiens; remark: listed apart in the source
[10] = fluconazole-exposed Candida albicans growth modulators – fluorescence, retest, confirmation (AID 2467); assay type: functional, cell-based
A-375 = assay: MITF: Counter assay: A375 proliferation Measured in Cell-Based System Using Plate Reader - 2084-03_Inhibitor_Dose_DryPowder_Activity. [Related pubchem assays (depositor defined):AID488944]; assay type: functional; conditions: Homo sapiens
[11] = HepG2 cell cytotoxicity, dose response, cytotoxicity control for non-replicating M. tuberculosis project (AID 489018); assay type: functional; conditions: Mycobacterium tuberculosis
[12] = viability loss in HeLa cells – cytotoxicity control for MgcRacGAP inhibitor project, dose response (AID 624300); assay type: functional
[13] = THP-1 cell cytotoxicity, dose response, cytotoxicity control for non-replicating M. tuberculosis project (AID 489025); assay type: functional
[14] = target: T6, Microphthalmia-associated transcription factor (Homo sapiens, UniProt O75030); assay: reducers of TRPM1 reporter luminescence, concentration series – cell-based, SK-MEL-5, cherry-picked, set 3, MITF inhibitor project, dose response (AID 493073); assay type: functional;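 also: SK-MEL-5 melanoma cells with luciferase driven by the MITF target TRPM1 promoter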
T6 sequence (O75030 whole entry): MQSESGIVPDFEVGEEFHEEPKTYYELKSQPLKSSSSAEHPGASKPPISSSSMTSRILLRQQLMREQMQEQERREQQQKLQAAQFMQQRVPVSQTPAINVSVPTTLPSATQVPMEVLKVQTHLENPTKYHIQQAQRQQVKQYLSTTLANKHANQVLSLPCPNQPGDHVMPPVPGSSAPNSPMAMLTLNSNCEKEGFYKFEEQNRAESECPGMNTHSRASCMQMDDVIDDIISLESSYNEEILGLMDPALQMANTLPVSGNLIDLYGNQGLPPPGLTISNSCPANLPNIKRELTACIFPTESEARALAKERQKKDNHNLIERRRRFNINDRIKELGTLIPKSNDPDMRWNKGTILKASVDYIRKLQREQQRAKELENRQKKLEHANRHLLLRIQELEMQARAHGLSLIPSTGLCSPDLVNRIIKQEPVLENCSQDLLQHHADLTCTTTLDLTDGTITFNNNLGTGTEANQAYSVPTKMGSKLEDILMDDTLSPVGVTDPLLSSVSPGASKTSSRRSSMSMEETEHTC

[15] = Trypanosoma cruzi growth suppression in host cells – NIH3T3 host cells, beta-gal luminescence, confirmation (AID 2044); assay type: functional, cell-based;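 also: intracellular parasites grown in NIH/3T3 mouse fibroblasts as host cells; luminescent beta-galactosidase reporter signal from transgenic T. cruzi replicating inside host cells; inhibitors lower the luminescence signal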
[16] = NIH3T3 cell viability loss – ATP luminescence, mouse fibroblasts, counter-screen, dose response (AID 2010); assay type: functional, cell-based;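 also: cells exposed to compound for about 90 hours before reading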
[17] = reduction of Shn3 3'UTR-driven luciferase in osteoblasts – cell-based, Clone20 osteoblasts, firefly luciferase, cherry-picked, dose response (AID 624132); assay type: functional;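 also: firefly luciferase luminescence from reporter carrying the Shn3 3'UTR in osteoblasts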
[18] = Vero E6 cell cytotoxicity, dose response, cytotoxicity control for non-replicating M. tuberculosis project, secondary assay (AID 492998); assay type: functional, VeroE6; conditions: Vero C1008
cells = assay type: functional
[19] = non-specific 3'UTR reporter inhibition in Clone20-Shn3RL – cell-based, Renilla luciferase, cherry-picked, counter-screen for Shn3 inhibitor project, dose response (AID 624133); assay type: functional
[20] = Luminescence Cell-Based Dose Retest to Confirm Inhibitors of Cancer Stem Cells. [Related pubchem assays (depositor defined):AID2717, AID2721]; assay type: functional; conditions: Homo sapiens
[21] = loss of viability in HepG2 cells – cell-based, CellTiter-Glo, cherry-picked, cytotoxicity control for Shn3 inhibitor project, dose response (AID 624134); assay type: functional
INS1 = assay: INS-1E survival protection against cytokine death – cell-based, luminescence, retest, dose response (AID 449756); assay type: functional; conditions: Rattus norvegicus;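 also: cell death triggered by IL-1 beta plus TNF-alpha plus IFN-gamma mixture; protective hits raise ATP signal compared with cytokine alone wells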
Estrogen receptor = target: T7, Estrogen receptor (Homo sapiens, UniProt P03372);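 also: potency for inhibiting coactivator peptide recruitment to the receptor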
T7 sequence (P03372 whole entry): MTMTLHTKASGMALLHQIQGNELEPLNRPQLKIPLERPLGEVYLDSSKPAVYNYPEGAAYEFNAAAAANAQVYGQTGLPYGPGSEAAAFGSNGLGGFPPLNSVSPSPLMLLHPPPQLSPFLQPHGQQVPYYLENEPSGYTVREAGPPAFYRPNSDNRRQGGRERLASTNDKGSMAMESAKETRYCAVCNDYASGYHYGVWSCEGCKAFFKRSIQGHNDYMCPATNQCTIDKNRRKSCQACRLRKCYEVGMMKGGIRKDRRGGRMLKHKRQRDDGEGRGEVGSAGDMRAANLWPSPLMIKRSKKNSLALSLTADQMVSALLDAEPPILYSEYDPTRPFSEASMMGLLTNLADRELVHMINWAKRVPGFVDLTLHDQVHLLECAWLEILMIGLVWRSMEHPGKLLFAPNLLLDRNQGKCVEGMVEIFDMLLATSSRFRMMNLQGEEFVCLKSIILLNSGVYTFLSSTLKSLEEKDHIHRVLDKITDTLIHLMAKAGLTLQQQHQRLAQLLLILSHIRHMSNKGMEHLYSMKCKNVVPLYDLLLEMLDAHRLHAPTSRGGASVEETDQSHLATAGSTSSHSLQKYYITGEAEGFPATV

Cytochrome P450 2C9 [22] = target: T2, Cytochrome P450 2C9; conditions: Potency

With `CC(=O)Nc1ccc(S(=O)(=O)N2CCCc3ccccc32)cc1` the IC50 [1] was > 80 µM (inactive).

With `COc1ccc(CNc2cc(C)nc3ncnn23)c(OC)c1` the IC50 (Protein Wnt-3a) was 4.21 µM (active).

For `O=C(O)c1cc(-c2ccccc2O)n[nH]1`, the IC50 [2] was > 100 µM (not active) and the IC50 [3] was > 100 µM (inactive).

In the case of `CCCn1c(=N)c(S(=O)(=O)c2ccc(F)cc2)cc2c(=O)n3cccc(C)c3nc21`, the AC50 (Escherichia coli) is reported as 42.8 µM (active).

With `O=C(O)c1ccc(/C=N\N=C2c3ccccc3-c3ccccc32)cc1` the AC50 (Cytochrome P450 2C9 [4]) was 7.94 µM (inconclusive) and the AC50 (Cytochrome P450 2D6) was “inconclusive”.

With `COc1ccc(-c2nnc(Nc3nc4c(OC)cccc4s3)o2)c(OC)c1` the Ki (fMet-Leu-Phe receptor) was > 66.7 µM (inactive), the EC50 [5] was > 150 µM (inconclusive) and the EC50 [6] was > 300 µM (not active). For the same compound, the EC50 (HEK293 [7]) was > 59.6 µM (inactive), the EC50 [8] was 61.3 µM (active) and the EC50 (HEK293 [9]) was > 59.6 µM (inactive). The EC50 [10] was > 38 µM (not active).

With `COc1ccc(N2C(=O)C3C4C=CC(C4)C3C2=O)nn1` (configuration not stated) the AC50 (Escherichia coli) was 26.5 µM (active).

In the case of `Cc1ccn2c(Nc3ccccc3)c(-c3ccccn3)nc2c1`, the AC50 (A-375) is reported as 38.1 µM (active), the CC50 [11] is reported as > 20 µM (active) and the CC50 [12] is reported as 50 µM (active). The CC50 [13] was 6.44 µM (active), the AC50 [14] was 9.31 µM (active) and the EC50 [15] was 1.16 µM (active). For the same compound, the EC50 [16] was 2.91 µM (active), the AC50 [17] was 2.31 µM (active) and the CC50 [18] was 4.64 µM (active). The IC50 (cells) was 3.88 µM (active), the AC50 [19] was 3.25 µM (active) and the AC50 [20] was 4.95 µM (active). The AC50 [21] was 7.07 µM (active) and the AC50 (INS1) was 5.31 µM (active).

For `CCCCC1C(=O)N(c2ccccc2)N(c2ccccc2)C1=O` [PHENYLBUTAZONE], the Ki (fMet-Leu-Phe receptor) was 5.3 µM (active), the IC50 (Estrogen receptor) was > 50 µM (not active) and the AC50 (Cytochrome P450 2C9 [22]) was 31.6 µM (inconclusive).
